Values of other authors, collected in patent publication US6821979B2, “Synergistic enhancement of cognitive ability” (Blanchette Rockefeller Neurosciences Institute, priority 2002, dated 2004).

How the values were obtained:
carbonic anhydrase [1] = conditions: single dose; electroencephalogram during rapid-eye-movement sleep
carbonic anhydrase [2] = conditions: conscious animals; CNS administration; other sensory and/or locomotor behaviors not affected
carbonic anhydrase [3] = conditions: rats; CNS administration
[4] = theophylline alone; literature studies

CC(=O)Nc1nnc(S(N)(=O)=O)s1 [acetazolamide]
reduction of magnitudes of θ-wave frequency activity (carbonic anhydrase [1]): 50%
spatial learning (carbonic anhydrase [2]): impairs spatial learning

c1c[nH]cn1 [imidazole]
ability to learn a water-maze task and to recall the maze from memory (carbonic anhydrase [3]): significantly enhances

N[C@@H](Cc1ccccc1)C(=O)O [phenylalanine]
ability to learn a water-maze task and to recall the maze from memory (carbonic anhydrase [3]): significantly enhances

Cn1c(=O)c2[nH]cnc2n(C)c1=O [theophylline]
effect on cognition [4]: insignificant
